These results are taken from article PMC3954497 (Journal of Medicinal Chemistry, 2014).

Data set [1] deals with NET (Rattus norvegicus, UniProt Q63380). The experiment in a line: biochemical. Type of data set: binding. As to conditions: 3 h, read-out: Ki [SE interval] NET.
For data set [2], the target named is DAT (Rattus norvegicus, UniProt P23977). Type of data set: binding. The settings on record: for improvement in DAT affinity vs unsubstituted analogue: 4i vs 4g, 6c vs 6a.
The target of data set [3] is SERT (Rattus norvegicus, UniProt P31652). Type of data set: binding. As to conditions: for displacement at the SERT: rat brain membranes; for increase in SERT affinity vs unsubstituted analogue: 4i vs 4g, 6c vs 6a.
Sequence of SERT (P31652 whole entry): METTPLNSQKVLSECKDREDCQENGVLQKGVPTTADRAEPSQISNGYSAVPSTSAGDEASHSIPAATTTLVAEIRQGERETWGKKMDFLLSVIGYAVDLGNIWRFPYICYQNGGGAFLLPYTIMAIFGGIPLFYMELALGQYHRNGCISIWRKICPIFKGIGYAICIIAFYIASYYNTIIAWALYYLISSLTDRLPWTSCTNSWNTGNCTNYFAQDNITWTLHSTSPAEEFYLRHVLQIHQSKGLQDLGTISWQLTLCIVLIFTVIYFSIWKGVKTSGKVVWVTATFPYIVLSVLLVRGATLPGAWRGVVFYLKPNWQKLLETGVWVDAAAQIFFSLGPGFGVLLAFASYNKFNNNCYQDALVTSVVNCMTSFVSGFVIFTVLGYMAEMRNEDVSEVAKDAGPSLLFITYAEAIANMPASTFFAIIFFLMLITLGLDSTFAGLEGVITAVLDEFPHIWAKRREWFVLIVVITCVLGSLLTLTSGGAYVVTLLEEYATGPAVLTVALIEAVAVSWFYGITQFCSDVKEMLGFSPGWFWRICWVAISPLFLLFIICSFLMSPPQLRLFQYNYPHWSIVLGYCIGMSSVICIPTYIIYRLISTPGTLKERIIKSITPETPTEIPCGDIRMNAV
In data set [4] the test system is NCCc1c[nH]c2ccc(O)cc12. Briefly: cells, lysate or membranes. As to conditions: pH 7.4; 37.0 °C.

Sequence of DAT (P23977 whole entry): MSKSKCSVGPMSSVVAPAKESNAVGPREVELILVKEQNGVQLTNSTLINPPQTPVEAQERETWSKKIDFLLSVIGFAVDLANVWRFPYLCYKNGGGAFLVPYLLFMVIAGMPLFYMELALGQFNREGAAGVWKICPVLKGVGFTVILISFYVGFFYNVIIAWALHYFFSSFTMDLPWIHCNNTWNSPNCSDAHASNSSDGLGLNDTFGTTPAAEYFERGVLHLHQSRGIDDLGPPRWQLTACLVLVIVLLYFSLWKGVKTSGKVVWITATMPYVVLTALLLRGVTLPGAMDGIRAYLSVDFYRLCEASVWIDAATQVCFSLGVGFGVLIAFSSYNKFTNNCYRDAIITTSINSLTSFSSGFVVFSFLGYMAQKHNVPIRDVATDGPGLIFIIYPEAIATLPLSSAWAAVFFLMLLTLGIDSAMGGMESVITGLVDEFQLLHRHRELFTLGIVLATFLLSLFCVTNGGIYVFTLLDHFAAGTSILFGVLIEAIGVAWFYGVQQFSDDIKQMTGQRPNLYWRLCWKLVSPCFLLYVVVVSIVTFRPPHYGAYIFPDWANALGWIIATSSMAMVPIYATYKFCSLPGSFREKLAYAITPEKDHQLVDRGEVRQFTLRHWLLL
Sequence of NET (Q63380 1-617): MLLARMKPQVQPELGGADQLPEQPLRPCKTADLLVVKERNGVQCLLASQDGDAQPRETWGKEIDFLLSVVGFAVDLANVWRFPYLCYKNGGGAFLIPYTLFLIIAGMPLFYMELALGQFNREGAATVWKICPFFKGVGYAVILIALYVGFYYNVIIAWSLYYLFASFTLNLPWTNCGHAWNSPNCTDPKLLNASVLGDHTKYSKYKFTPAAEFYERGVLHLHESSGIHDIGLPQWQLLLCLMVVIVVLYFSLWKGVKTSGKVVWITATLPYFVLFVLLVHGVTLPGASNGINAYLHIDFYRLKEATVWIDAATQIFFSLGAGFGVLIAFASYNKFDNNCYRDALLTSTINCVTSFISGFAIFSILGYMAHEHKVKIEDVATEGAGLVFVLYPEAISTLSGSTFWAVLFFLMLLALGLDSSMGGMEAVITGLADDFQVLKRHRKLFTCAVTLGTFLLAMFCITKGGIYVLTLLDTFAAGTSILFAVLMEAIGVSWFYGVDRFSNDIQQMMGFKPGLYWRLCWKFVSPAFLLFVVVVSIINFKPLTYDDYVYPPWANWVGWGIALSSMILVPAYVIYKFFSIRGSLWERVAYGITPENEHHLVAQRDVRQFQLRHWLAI

`NC(=O)C[S+]([O-])C(c1cccc(Cl)c1)c1cccc(Cl)c1` (stereo not drawn) [5d, 2-((Bis(3-chlorophenyl)methyl)sulfinyl)acetamide]: the inhibition in data set [1] is below 50%.
Same read-out and setting: the same measure for `Cc1ccc(C(c2ccc(C)cc2)[S+]([O-])CC(N)=O)cc1` (stereo not drawn) [5a, 2-((Di-p-tolylmethyl)sulfinyl)acetamide]: below 50%.
For the compound `NCCSC(c1ccccc1)c1ccccc1` [6a, 2-(Benzhydrylthio)ethan-1-amine], the “improved DAT affinity compared to (±)-1” value in data set [2] is “about 20 fold”.
As to `O=C(CSC(c1ccc(Br)cc1)c1ccc(Br)cc1)NCCCCc1ccccc1` [4z, 2-((Bis(4-bromophenyl)methyl)thio)-N-(4-phenylbutyl)acetamide], the inhibition at 100 µM in data set [1] is below 50%. The “displacement at the SERT” value in data set [3] is given as “no displacement”.
In the case of `NCCSC(c1ccc(Br)cc1)c1ccc(Br)cc1` [6c, 2-((Bis(4-bromophenyl)methyl)thio)ethan-1-amine], the “improvement in DAT affinity vs unsubstituted analogue” value in data set [2] stood at 3 fold. Also, the “increase in SERT affinity vs unsubstituted analogue” value in data set [3] is on record as 9 fold.
As for `C=CCNC(=O)CSC(c1ccccc1)c1ccccc1` [4j, N-Allyl-2-(benzhydrylthio)acetamide], the inhibition in data set [1] was below 50%.
As to `O=C(CSC(c1ccc(Br)cc1)c1ccc(Br)cc1)NCC1CC1` [4q, 2-((Bis(4-bromophenyl)methyl)thio)-N-(cyclopropylmethyl)acetamide], the inhibition in data set [1] is below 50%.
For the compound `CNC(=O)CSC(c1ccc(Br)cc1)c1ccc(Br)cc1` [4i, 2-((Bis(4-bromophenyl)methyl)thio)-N-methylacetamide], the “improvement in DAT affinity vs unsubstituted analogue” value in data set [2] was 6 fold. Further, in data set [3], the “increase in SERT affinity vs unsubstituted analogue” value is listed as above 50 fold.
Take `O=C(CSC(c1ccccc1)c1ccccc1)NCC1CC1` [4o, 2-(Benzhydrylthio)-N-(cyclopropylmethyl)acetamide]: the inhibition in data set [1] was below 50%.
In the case of `O=C(CSC(c1ccc(F)cc1)c1ccc(F)cc1)NCCCc1ccccc1` [4v, 2-((Bis(4-fluorophenyl)methyl)thio)-N-(3-phenylpropyl)acetamide], in data set [1], the inhibition at 100 µM was below 50%.
Take `NC(=O)C[S+]([O-])C(c1ccccc1)c1cccc(Br)c1` (stereo not drawn) [5e, 2-(((3-Bromophenyl)phenylmethyl)sulfinyl)acetamide]: in data set [1], the inhibition was below 50%. For the same compound, in data set [3], the “displacement at the SERT” value is given as “no displacement”.
Turning to `CNC(=O)C[S+]([O-])C(c1ccccc1)c1ccccc1` (stereo not drawn) [5f, 2-(Benzhydrylsulfinyl)-N-methylacetamide], the inhibition in data set [1] was below 50%.
For the compound `CCCCNC(=O)CSC(c1ccccc1)c1ccccc1` [4r, 2-(Benzhydrylthio)-N-butylacetamide], the inhibition in data set [1] was below 50%.
For the compound `NC(=O)C[S+]([O-])C(c1cccc(F)c1)c1cccc(F)c1` (stereo not drawn) [5c, 2-((Bis(3-fluorophenyl)methyl)sulfinyl)acetamide], the inhibition in data set [1] was below 50%.
As for `O=C(CSC(c1ccc(Cl)cc1)c1ccc(Cl)cc1)NCCCc1ccccc1` [4w, 2-((Bis(4-chlorophenyl)methyl)thio)-N-(3-phenylpropyl)acetamide], the inhibition at 100 µM in data set [1] is below 50%. Moreover, in data set [3], the “displacement at the SERT” value is reported as “no displacement”.
With `O=C(CSC(c1ccccc1)c1ccccc1)NCCCc1ccccc1` [4u, 2-(Benzhydrylthio)-N-(3-phenylpropyl)acetamide], the inhibition at 100 µM in data set [1] was below 50%.
Take hSERT-WT (Homo sapiens): the Km in data set [4] is 520 [360–760] nM.
Turning to `O=C(C[S+]([O-])C(c1ccc(Br)cc1)c1ccc(Br)cc1)NCCCc1ccccc1` (stereo not drawn) [5g, 2-((Bis(4-bromophenyl)methyl)sulfinyl)-N-(3-phenylpropyl)acetamide], the inhibition at 100 µM in data set [1] is below 50%.
Consider `NC(=O)CSC(c1ccccc1)c1ccccc1` [4a, 2-(Benzhydrylthio)acetamide], for which the inhibition in data set [1] was below 50%.
